Reference: PMC9481570, “A small molecule antagonist of SMN disrupts the interaction between SMN and RNAP II” (Nature Communications, 2022)

Legend:
[1] = molecular target: T1, SMN-RNAP II (GFP-POLR2D) interaction (Homo sapiens, UniProt Q16637); assay: Coimmunoprecipitation of SMN with GFP-POLR2D in HEK293 cells; type: cell-based; details: series of concentrations, 72 h
T1 construct: endogenous in cells; host or cells: HEK293
Protocol: HEK293 cells (ATCC, CRL-1573) were grown in DMEM (SLRI media facility) plus 10% FBS (Sigma, F1051). For analysis of SMN chemical antagonists, HEK293 cells were treated with DMSO or a series of concentrations (0, 2, 6, 10, 20, 30, 40, and 80 μM) of compound 1, compound 2 or negative compound 15 for 72 h. CRISPR-mediated SMN1 gene knockout was performed according to our previous study. Briefly, 2 μg of CRISPR/Cas9 plasmid (pCMV-Cas9-GFP), which expresses scrambled guide RNA, or guide RNA that targets the SMN1 gene exon1 (gRNA target sequence: […]) or exon3 (gRNA target sequence: […]) was transfected into HEK293 cells. Cells were sorted by BD FACSAria flow cytometry at Donnelly Center, University of Toronto 24 h after transfection, and single GFP-positive cells were seeded into a 48-well plate. The expression levels of SMN in each clone were detected by immunofluorescence. The transfection of GFP-RNase H1 R-loop-binding domain (GFP-HB) for R-loop detection into HEK293 cells was performed with the FuGENE Transfection reagent (Roche, E269A).
The experiments were performed following procedure as previously described with minor modifications. […]

[2] = test system: SMN occupancy at ACTB gene; assay: SMN ChIP-qPCR along the ACTB gene; type: cell-based, human; details: 72 h; for SMN/RNAPII, ACTB position 332 / SMN/RNAPII, ACTB position 1671 / SMN/RNAPII, ACTB position 2911 / SMN/RNAPII, ACTB position 3752 / SMN/RNAPII, ACTB position 4657 / SMN/RNAPII, ACTB position 5590 / SMN/RNAPII, ACTB position -72: HEK293, 20 μM, ChIP-qPCR, DMSO = 1; for occupancy levels of SMN along the ACTB gene: HEK293 cells, 20 µM
Protocol: ChIP was performed using the EZ-ChIP™ A - Chromatin Immunoprecipitation Kit (Millipore, 17-371) according to the manufacturer’s instruction. Antibodies were used with a range of 1–2 μg, and IgG (Millipore, polyclonal antibody, 12-370) was used as a background control. After immunoprecipitation, genomic DNA was de-crosslinked in ChIP elution buffer containing 5 M NaCl at 65 °C overnight and purified with the Qiaex II kit (Qiagen, 20021), and eluted in water for PCR amplification. Immunoprecipitated and input DNAs were used as templates for qPCR. The qPCR primer sequences for ACTB gene are the same as described earlier[9] and shown in the Supplementary Table 2. For analysis of SMN chemical antagonists, HEK293 cells were treated with DMSO, compound 1 or compound 2 (a final concentration of 20 μM) for 72 h, before processing for ChIP.

[3] = test system: R-loops in HEK293 cells; assay: Global nuclear R-loop immunofluorescence (S9.6 antibody); type: cell-based, human; details: 20 μM, 72 h, S9.6 immunofluorescence
Protocol: Global nuclear R-loop detection was ascertained via immunofluorescence using the S9.6 antibody (Kerafast, ENH001)[58]. At 24 h prior to immunofluorescence, 40,000 cells were seeded on to Poly-L-Lysine (PLL) coated coverslips. Cells were fixed using 1% formaldehyde for 15 min, washed three times with PBS, permeabilized with 0.3% Triton X-100 and washed again three times with PBS. Coverslips were blocked using 5% BSA for 1 h at room temperature and transferred to humidified chambers for antibody incubations. Coverslips were incubated with 60 μL of monoclonal S9.6 antibody (Kerafast, ENH001, 1:500) for 1 h at room temperature. After washing with PBS, cells were incubated with a secondary goat anti-mouse Alexa Fluor 488 antibody (Thermo Fisher, A11001, 1:1000) for 1 h in a dark chamber. Following further washing and DAPI staining, coverslips were mounted onto microscope slides using DAKO fluorescent mounting medium (Agilent, S302380-2) and then sealed with nail polish. […] The coverslips were processed for immunofluorescence 24 h later using the primary antibodies monoclonal S9.6 (Kerafast, ENH001, 1:500), or polyclonal anti-RNase H1 (Proteintech, 15606-1-AP, 1:500) and the secondary antibodies goat anti-mouse Alexa Fluor 488 (Thermo Fisher, A11001, 1:1000) or goat anti-rabbit Alexa Fluor 568 (Thermo Fisher, A11011, 1:1000) to quantify R-loop and confirm RNase H1 overexpression, respectively. […]

T1 sequence (Q16637 2-294 limits assumed): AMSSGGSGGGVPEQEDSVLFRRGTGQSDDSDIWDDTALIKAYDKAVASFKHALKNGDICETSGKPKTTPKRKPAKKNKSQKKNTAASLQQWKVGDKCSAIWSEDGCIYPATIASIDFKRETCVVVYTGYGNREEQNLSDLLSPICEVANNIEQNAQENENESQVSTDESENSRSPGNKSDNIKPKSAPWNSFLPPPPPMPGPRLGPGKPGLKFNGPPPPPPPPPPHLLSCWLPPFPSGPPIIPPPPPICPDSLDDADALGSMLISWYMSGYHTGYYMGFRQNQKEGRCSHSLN

| SMILES | coimmunoprecipitation of SMN with GFP fusion protein of POLR2D [1] | SMN/RNAPII, ACTB position 332 [2] | SMN/RNAPII, ACTB position 1671 [2] | SMN/RNAPII, ACTB position 2911 [2] | SMN/RNAPII, ACTB position 3752 [2] | SMN/RNAPII, ACTB position 4657 [2] | SMN/RNAPII, ACTB position 5590 [2] | SMN/RNAPII, ACTB position -72 [2] | occupancy levels of SMN along the ACTB gene [2] | global nuclear R-loop levels in comparison to the DMSO controls [3] |
| --- | --- | --- | --- | --- | --- | --- | --- | --- | --- | --- |
| CCCn1c2c(c(=N)c3c1CCC3)CCC2 [Compound 2, 4-propyl-2,3,4,5,6,7-hexahydrodicyclopenta[b,e]pyridin-8(1H)-imine] | inhibited | 0.5015 | 0.45 | 0.3355 | 0.2279 | 0.35 | 0.2022 | 0.3107 | significantly reduced | significantly increased |
| Cn1c2c(c(=N)c3c1CCC3)CCC2 [Compound 1, 4-methyl-2,3,4,5,6,7-hexahydrodicyclopenta[b,e]pyridin-8(1H)-imine] | inhibited | 0.6623 | 0.139 | 0.1085 | 0.1464 | 0.1588 | 0.03323 | 0.2631 | significantly reduced | significantly increased |
